Assay results reported in the kinase profiling compilation of Christmann-Franck et al. (2016).

Assays:
Assay in all cases: radiometric filter-binding kinase assay, Kinase HotSpot
Conditions in all cases: compound 0.5 µM; ATP 10 µM
NEK7 (human) = NEK7 (human) (UniProt Q8TDX7)
PNCK (human) = PNCK (human) (UniProt Q6P2M8)
CLK2 (human) = CLK2 (human) (UniProt P49760)
KIT (human) = KIT (human) (UniProt P10721)
RPS6KB1 (human) = RPS6KB1 (human) (UniProt P23443)
CAMK2G (human) = CAMK2G (human) (UniProt Q13555)
STK25 (human) = STK25 (human) (UniProt O00506)
[1] = system: FLT4 (human), P35916 [Q890H]
DYRK3 (human) = DYRK3 (human) (UniProt O43781)
CAMK1 (human) = CAMK1 (human) (UniProt Q14012)
PTK2B (human) = PTK2B (human) (UniProt Q14289)
[2] = system: MAP2K6 (human), P52564 [S207E/T211E]
EPHA3 (human) = EPHA3 (human) (UniProt P29320)
PRKCZ (human) = PRKCZ (human) (UniProt Q05513)
CSNK1G1 (human) = CSNK1G1 (human) (UniProt Q9HCP0)
RPS6KA4 KD2 (human) = RPS6KA4 KD2 (human) (UniProt O75676)
ROS1 (human) = ROS1 (human) (UniProt P08922)
PRKCI (human) = PRKCI (human) (UniProt P41743)
ACVRL1 (human) = ACVRL1 (human) (UniProt P37023)
NLK (human) = NLK (human) (UniProt Q9UBE8)
CHEK1 (human) = CHEK1 (human) (UniProt O14757)
[3] = system: PRKCQ (human), Q04759 [P330L]
IRAK4 (human) = IRAK4 (human) (UniProt Q9NWZ3)
DAPK1 (human) = DAPK1 (human) (UniProt P53355)
FLT1 (human) = FLT1 (human) (UniProt P17948)
IRAK1 (human) = IRAK1 (human) (UniProt P51617)
CDK1 CCNA2 (human) = CDK1 CCNA2 (human) (UniProt P06493+P20248)
VRK1 (human) = VRK1 (human) (UniProt Q99986)
ADRBK2 (human) = ADRBK2 (human) (UniProt P35626)
MST1R (human) = MST1R (human) (UniProt Q04912)
SGK2 (human) = SGK2 (human) (UniProt Q9HBY8)
TYRO3 (human) = TYRO3 (human) (UniProt Q06418)
HCK (human) = HCK (human) (UniProt P08631)
NEK2 (human) = NEK2 (human) (UniProt P51955)
FGR (human) = FGR (human) (UniProt P09769)
ITK (human) = ITK (human) (UniProt Q08881)
PRKCA (human) = PRKCA (human) (UniProt P17252)
PAK3 (human) = PAK3 (human) (UniProt O75914)
AURKB (human) = AURKB (human) (UniProt Q96GD4)
MYLK (human) = MYLK (human) (UniProt Q15746)
MELK (human) = MELK (human) (UniProt Q14680)
AURKC (human) = AURKC (human) (UniProt Q9UQB9)
Chain of AURKC (human) (Q9UQB9 whole entry, looked up): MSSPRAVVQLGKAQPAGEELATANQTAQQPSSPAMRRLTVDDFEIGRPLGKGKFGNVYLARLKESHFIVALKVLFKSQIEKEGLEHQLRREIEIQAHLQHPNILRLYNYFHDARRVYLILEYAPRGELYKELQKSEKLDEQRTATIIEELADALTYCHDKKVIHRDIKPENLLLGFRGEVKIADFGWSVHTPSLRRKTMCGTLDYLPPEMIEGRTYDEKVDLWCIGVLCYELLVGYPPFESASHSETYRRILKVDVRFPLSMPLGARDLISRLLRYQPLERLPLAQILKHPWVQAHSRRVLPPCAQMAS

Chain of CAMK1 (human) (Q14012 whole entry, looked up): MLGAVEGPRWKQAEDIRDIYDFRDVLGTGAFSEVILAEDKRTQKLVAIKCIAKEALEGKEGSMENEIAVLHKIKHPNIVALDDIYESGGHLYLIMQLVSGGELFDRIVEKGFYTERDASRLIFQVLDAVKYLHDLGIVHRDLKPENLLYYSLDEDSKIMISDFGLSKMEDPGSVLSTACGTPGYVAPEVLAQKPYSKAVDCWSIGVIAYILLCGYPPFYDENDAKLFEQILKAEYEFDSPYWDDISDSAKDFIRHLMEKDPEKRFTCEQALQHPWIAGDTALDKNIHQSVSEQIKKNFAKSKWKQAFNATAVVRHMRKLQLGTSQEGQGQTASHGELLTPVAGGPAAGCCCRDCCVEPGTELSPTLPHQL
Chain of FLT4 (human), P35916 [Q890H] (P35916 whole entry, looked up, stated change not applied): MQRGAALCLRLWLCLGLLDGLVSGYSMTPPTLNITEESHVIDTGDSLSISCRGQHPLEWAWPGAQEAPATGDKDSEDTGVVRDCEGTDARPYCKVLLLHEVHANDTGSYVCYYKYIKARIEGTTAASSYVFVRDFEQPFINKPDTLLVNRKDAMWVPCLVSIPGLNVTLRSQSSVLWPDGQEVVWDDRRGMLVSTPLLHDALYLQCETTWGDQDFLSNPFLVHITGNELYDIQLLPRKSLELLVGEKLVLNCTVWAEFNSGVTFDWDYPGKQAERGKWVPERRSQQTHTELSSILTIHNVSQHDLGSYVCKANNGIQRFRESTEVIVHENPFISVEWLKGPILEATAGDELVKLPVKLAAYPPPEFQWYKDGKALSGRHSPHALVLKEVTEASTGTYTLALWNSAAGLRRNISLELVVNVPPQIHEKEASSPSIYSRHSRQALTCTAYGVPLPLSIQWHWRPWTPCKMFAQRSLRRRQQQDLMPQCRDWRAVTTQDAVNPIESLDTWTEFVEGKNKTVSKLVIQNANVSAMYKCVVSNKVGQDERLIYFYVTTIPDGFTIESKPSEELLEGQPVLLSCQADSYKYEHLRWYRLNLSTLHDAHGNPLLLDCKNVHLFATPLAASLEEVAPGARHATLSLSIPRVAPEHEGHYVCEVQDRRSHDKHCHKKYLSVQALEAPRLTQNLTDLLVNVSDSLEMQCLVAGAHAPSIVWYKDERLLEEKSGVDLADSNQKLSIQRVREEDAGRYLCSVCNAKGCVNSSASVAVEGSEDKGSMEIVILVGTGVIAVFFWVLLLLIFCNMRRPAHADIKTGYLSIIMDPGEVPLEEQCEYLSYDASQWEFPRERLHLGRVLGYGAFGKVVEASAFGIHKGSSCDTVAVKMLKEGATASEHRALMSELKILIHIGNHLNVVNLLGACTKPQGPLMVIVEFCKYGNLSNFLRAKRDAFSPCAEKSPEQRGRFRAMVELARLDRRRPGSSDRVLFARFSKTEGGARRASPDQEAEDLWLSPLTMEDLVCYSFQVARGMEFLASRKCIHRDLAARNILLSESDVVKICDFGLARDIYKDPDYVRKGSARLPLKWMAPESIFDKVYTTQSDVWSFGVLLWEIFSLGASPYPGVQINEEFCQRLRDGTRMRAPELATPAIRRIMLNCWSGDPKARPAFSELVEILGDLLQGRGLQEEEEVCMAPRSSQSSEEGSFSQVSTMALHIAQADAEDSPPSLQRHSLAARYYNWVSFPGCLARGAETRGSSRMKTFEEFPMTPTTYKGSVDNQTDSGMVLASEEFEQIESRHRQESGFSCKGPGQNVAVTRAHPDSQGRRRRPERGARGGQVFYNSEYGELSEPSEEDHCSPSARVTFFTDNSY
Chain of RPS6KB1 (human) (P23443 whole entry, looked up): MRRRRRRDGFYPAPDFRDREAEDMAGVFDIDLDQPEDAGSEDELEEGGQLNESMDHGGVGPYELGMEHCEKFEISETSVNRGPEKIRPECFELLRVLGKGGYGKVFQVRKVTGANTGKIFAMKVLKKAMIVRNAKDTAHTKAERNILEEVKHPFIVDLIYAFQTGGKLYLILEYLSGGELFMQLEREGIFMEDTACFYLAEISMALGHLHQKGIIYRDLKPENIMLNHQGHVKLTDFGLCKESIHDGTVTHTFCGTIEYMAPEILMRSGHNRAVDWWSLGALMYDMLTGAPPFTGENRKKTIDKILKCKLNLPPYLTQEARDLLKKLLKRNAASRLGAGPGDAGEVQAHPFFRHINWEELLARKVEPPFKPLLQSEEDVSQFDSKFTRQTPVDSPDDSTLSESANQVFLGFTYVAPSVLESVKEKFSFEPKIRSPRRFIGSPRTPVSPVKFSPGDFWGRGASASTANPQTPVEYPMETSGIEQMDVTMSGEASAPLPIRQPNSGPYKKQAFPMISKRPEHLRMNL
Chain of MELK (human) (Q14680 whole entry, looked up): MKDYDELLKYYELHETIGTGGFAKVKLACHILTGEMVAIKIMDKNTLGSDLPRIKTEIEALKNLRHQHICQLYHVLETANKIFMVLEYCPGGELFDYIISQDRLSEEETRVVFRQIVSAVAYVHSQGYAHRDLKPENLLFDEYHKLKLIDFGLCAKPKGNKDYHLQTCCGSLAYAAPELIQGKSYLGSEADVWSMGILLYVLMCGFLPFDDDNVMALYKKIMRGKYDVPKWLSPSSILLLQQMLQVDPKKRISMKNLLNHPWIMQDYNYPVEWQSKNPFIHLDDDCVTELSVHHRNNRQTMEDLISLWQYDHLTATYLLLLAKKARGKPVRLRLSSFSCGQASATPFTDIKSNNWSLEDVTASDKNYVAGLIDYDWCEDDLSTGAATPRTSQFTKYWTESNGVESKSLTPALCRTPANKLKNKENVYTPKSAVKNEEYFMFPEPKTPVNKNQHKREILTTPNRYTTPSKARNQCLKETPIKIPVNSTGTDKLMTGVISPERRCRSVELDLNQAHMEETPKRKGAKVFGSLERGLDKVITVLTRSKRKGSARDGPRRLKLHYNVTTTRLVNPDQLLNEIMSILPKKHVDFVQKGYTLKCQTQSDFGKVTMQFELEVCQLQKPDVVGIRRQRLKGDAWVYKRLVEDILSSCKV
Chain of MAP2K6 (human), P52564 [S207E/T211E] (P52564 whole entry S207E/T211E, looked up): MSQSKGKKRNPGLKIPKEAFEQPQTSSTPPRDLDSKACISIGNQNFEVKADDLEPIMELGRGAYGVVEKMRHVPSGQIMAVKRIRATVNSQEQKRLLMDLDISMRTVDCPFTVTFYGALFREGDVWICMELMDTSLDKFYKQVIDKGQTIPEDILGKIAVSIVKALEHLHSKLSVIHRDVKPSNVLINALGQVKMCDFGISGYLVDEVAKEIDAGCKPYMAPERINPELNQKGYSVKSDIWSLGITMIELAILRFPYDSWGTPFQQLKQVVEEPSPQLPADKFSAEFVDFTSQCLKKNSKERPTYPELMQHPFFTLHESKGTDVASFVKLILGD
Chain of SGK2 (human) (Q9HBY8 whole entry, looked up): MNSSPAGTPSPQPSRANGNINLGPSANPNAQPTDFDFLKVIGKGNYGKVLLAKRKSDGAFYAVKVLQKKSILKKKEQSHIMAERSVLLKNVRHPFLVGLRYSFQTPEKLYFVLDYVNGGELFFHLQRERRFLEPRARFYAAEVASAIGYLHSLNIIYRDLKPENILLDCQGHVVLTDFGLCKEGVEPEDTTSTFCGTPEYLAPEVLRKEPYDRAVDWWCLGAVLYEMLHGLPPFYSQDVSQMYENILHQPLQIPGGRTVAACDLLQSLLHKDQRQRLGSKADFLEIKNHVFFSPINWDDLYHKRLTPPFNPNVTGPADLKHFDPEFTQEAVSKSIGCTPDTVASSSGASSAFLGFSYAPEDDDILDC
Chain of NEK7 (human) (Q8TDX7 whole entry, looked up): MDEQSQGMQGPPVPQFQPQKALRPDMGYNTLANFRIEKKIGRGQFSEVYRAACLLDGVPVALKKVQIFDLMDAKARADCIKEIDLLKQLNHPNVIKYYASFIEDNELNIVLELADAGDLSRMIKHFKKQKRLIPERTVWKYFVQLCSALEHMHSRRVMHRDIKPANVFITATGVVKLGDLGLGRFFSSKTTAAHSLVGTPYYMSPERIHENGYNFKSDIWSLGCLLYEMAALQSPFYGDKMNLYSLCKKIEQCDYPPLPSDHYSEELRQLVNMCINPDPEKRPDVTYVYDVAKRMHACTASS
Chain of RPS6KA4 KD2 (human) (O75676 whole entry, looked up): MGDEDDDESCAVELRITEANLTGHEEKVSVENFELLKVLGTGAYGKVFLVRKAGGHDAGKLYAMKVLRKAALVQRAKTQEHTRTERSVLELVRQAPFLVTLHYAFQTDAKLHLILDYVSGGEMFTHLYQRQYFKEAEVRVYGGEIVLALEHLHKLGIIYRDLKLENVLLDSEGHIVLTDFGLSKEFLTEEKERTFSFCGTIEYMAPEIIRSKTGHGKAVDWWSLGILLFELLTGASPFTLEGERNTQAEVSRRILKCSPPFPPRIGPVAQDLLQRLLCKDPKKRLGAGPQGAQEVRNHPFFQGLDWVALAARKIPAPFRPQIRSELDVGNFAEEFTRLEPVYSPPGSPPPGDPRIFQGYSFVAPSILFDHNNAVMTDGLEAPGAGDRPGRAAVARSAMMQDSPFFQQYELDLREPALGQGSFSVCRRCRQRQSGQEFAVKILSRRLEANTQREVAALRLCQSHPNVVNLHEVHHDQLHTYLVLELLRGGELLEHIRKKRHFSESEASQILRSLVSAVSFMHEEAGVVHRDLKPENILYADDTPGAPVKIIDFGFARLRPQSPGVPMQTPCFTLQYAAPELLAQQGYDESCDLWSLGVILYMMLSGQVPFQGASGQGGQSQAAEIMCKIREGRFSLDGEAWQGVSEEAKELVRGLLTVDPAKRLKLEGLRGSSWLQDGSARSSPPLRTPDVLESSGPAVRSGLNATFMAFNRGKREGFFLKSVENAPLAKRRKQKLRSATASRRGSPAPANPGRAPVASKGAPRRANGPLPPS

`N#C/C(=C\c1ccc(O)c(O)c1)C(=O)NCc1ccccc1` was tested, and the residual activity (NEK7 (human)) was 111%, the residual activity (PNCK (human)) was 97.1% and the residual activity (CLK2 (human)) was 110%. It also gave a residual activity (KIT (human)) of 93.9%, a residual activity (RPS6KB1 (human)) of 92.8% and a residual activity (CAMK2G (human)) of 94.1%. It also gave a residual activity (STK25 (human)) of 101%, a residual activity [1] of 87.7% and a residual activity (DYRK3 (human)) of 99.6%. The residual activity (CAMK1 (human)) was 93%, the residual activity (PTK2B (human)) was 92.6% and the residual activity [2] was 127%. It also gave a residual activity (EPHA3 (human)) of 97.2%, a residual activity (PRKCZ (human)) of 104% and a residual activity (CSNK1G1 (human)) of 102%. The residual activity (RPS6KA4 KD2 (human)) was 94.2%, the residual activity (ROS1 (human)) was 101% and the residual activity (PRKCI (human)) was 96.4%. The residual activity (ACVRL1 (human)) was 106%, the residual activity (NLK (human)) was 110% and the residual activity (CHEK1 (human)) was 89.2%. For the same compound, the residual activity [3] was 103%, the residual activity (IRAK4 (human)) was 93.7% and the residual activity (DAPK1 (human)) was 99.7%. It also gave a residual activity (FLT1 (human)) of 88%, a residual activity (IRAK1 (human)) of 154% and a residual activity (CDK1 CCNA2 (human)) of 92.8%. The residual activity (VRK1 (human)) was 97%, the residual activity (ADRBK2 (human)) was 91.4% and the residual activity (MST1R (human)) was 102%. The residual activity (SGK2 (human)) was 101%, the residual activity (TYRO3 (human)) was 109% and the residual activity (HCK (human)) was 97.5%. The residual activity (NEK2 (human)) was 102%, the residual activity (FGR (human)) was 93.7% and the residual activity (ITK (human)) was 98.8%. For the same compound, the residual activity (PRKCA (human)) was 99.1%, the residual activity (PAK3 (human)) was 101% and the residual activity (AURKB (human)) was 94.4%. It also gave a residual activity (MYLK (human)) of 94.5%, a residual activity (MELK (human)) of 100% and a residual activity (AURKC (human)) of 95.5%.
`O=C1Nc2ccc(Br)cc2/C1=C\c1cc2c([nH]1)CCCC2` showed a residual activity (NEK7 (human)) of 103%, a residual activity (PNCK (human)) of 98.6% and a residual activity (CLK2 (human)) of 88.6%. For the same compound, the residual activity (KIT (human)) was 30.5%, the residual activity (RPS6KB1 (human)) was 91.9% and the residual activity (CAMK2G (human)) was 92.4%. For the same compound, the residual activity (STK25 (human)) was 102%, the residual activity [1] was 56.1% and the residual activity (DYRK3 (human)) was 94%. For the same compound, the residual activity (CAMK1 (human)) was 98.4%, the residual activity (PTK2B (human)) was 82.4% and the residual activity [2] was 110%. The residual activity (EPHA3 (human)) was 94.6%, the residual activity (PRKCZ (human)) was 104% and the residual activity (CSNK1G1 (human)) was 102%. It also gave a residual activity (RPS6KA4 KD2 (human)) of 94.2%, a residual activity (ROS1 (human)) of 98.6% and a residual activity (PRKCI (human)) of 92%. The residual activity (ACVRL1 (human)) was 103%, the residual activity (CHEK1 (human)) was 81.8% and the residual activity [3] was 98.4%. For the same compound, the residual activity (IRAK4 (human)) was 67.2%, the residual activity (DAPK1 (human)) was 111% and the residual activity (FLT1 (human)) was 73.4%. It also gave a residual activity (IRAK1 (human)) of 97%, a residual activity (CDK1 CCNA2 (human)) of 96.3% and a residual activity (VRK1 (human)) of 108%. It also gave a residual activity (ADRBK2 (human)) of 89.9%, a residual activity (MST1R (human)) of 88.3% and a residual activity (SGK2 (human)) of 101%. The residual activity (TYRO3 (human)) was 104%, the residual activity (HCK (human)) was 88.5% and the residual activity (NEK2 (human)) was 87.9%. The residual activity (FGR (human)) was 67.7%, the residual activity (ITK (human)) was 87.5% and the residual activity (PRKCA (human)) was 102%. The residual activity (PAK3 (human)) was 96.4%, the residual activity (AURKB (human)) was 56.7% and the residual activity (MYLK (human)) was 95.7%. It also gave a residual activity (MELK (human)) of 75.6% and a residual activity (AURKC (human)) of 86.3%.
`Cc1cccc(-c2nc(C(C)(C)C)[nH]c2-c2ccc3c(c2)OCO3)n1` showed a residual activity (NEK7 (human)) of 106%, a residual activity (PNCK (human)) of 101% and a residual activity (CLK2 (human)) of 95.2%. For the same compound, the residual activity (KIT (human)) was 93.6%, the residual activity (RPS6KB1 (human)) was 95.9% and the residual activity (CAMK2G (human)) was 85.5%. It also gave a residual activity (STK25 (human)) of 104%, a residual activity [1] of 99.8% and a residual activity (DYRK3 (human)) of 102%. For the same compound, the residual activity (CAMK1 (human)) was 99.8%, the residual activity (PTK2B (human)) was 91.3% and the residual activity [2] was 105%. It also gave a residual activity (EPHA3 (human)) of 101%, a residual activity (PRKCZ (human)) of 87.9% and a residual activity (CSNK1G1 (human)) of 79.4%. The residual activity (ROS1 (human)) was 101%, the residual activity (PRKCI (human)) was 92.8% and the residual activity (ACVRL1 (human)) was 127%. For the same compound, the residual activity (NLK (human)) was 87.9%, the residual activity (CHEK1 (human)) was 89.8% and the residual activity [3] was 107%. For the same compound, the residual activity (IRAK4 (human)) was 86.8%, the residual activity (DAPK1 (human)) was 102% and the residual activity (FLT1 (human)) was 84.3%. It also gave a residual activity (IRAK1 (human)) of 118%, a residual activity (CDK1 CCNA2 (human)) of 96.7% and a residual activity (VRK1 (human)) of 97.5%. It also gave a residual activity (ADRBK2 (human)) of 96.3%, a residual activity (MST1R (human)) of 101% and a residual activity (SGK2 (human)) of 100%. For the same compound, the residual activity (TYRO3 (human)) was 102%, the residual activity (HCK (human)) was 90.7% and the residual activity (NEK2 (human)) was 107%. It also gave a residual activity (FGR (human)) of 99.9%, a residual activity (ITK (human)) of 95.8% and a residual activity (PRKCA (human)) of 99.6%. It also gave a residual activity (PAK3 (human)) of 95.9%, a residual activity (AURKB (human)) of 96.5% and a residual activity (MYLK (human)) of 105%. The residual activity (MELK (human)) was 92.7% and the residual activity (AURKC (human)) was 91.4%.
Compound `O=C(c1cc2cc(O)ccc2[nH]1)c1cc2cc(O)ccc2[nH]1` has a residual activity (NEK7 (human)) of 101%, a residual activity (PNCK (human)) of 105% and a residual activity (CLK2 (human)) of 105%. For the same compound, the residual activity (KIT (human)) was 45.6%, the residual activity (RPS6KB1 (human)) was 85% and the residual activity (CAMK2G (human)) was 89.5%. For the same compound, the residual activity (STK25 (human)) was 105%, the residual activity [1] was 67.1% and the residual activity (DYRK3 (human)) was 115%. For the same compound, the residual activity (CAMK1 (human)) was 97.4%, the residual activity (PTK2B (human)) was 85.5% and the residual activity [2] was 93.6%. For the same compound, the residual activity (EPHA3 (human)) was 101%, the residual activity (CSNK1G1 (human)) was 93.1% and the residual activity (RPS6KA4 KD2 (human)) was 81.3%. It also gave a residual activity (ROS1 (human)) of 105%, a residual activity (PRKCI (human)) of 98.4% and a residual activity (ACVRL1 (human)) of 98.4%. The residual activity (NLK (human)) was 83.2%, the residual activity (CHEK1 (human)) was 82.5% and the residual activity [3] was 92.1%. It also gave a residual activity (IRAK4 (human)) of 85.9%, a residual activity (DAPK1 (human)) of 101% and a residual activity (FLT1 (human)) of 81.3%. It also gave a residual activity (IRAK1 (human)) of 98.1%, a residual activity (CDK1 CCNA2 (human)) of 88.2% and a residual activity (VRK1 (human)) of 85.3%. The residual activity (ADRBK2 (human)) was 102%, the residual activity (MST1R (human)) was 90.4% and the residual activity (SGK2 (human)) was 94.3%. The residual activity (TYRO3 (human)) was 76.4%, the residual activity (HCK (human)) was 51.2% and the residual activity (NEK2 (human)) was 101%. The residual activity (FGR (human)) was 12.7%, the residual activity (ITK (human)) was 77.7% and the residual activity (PRKCA (human)) was 84.1%. It also gave a residual activity (PAK3 (human)) of 99.2%, a residual activity (AURKB (human)) of 24.2% and a residual activity (MYLK (human)) of 91.4%. It also gave a residual activity (MELK (human)) of 49.2% and a residual activity (AURKC (human)) of 83.2%.
